Results on eight compounds are retold here after patent US20250059231A1, “Protease inhibitors” (priority 2021, published 2025).

Where a SMILES comes first, the peptide text is derived from it. [ ]: non-standard residue; d: D form. The star is where a group is joined. Palmitoyl = CCCCCCCCCCCCCCCC(=O)*; hPhe = N[C@@H](CCc1ccccc1)C(=O)O; β3hK = NCCCC[C@H](N)CC(=O)O

Data set [1] deals with Dengue virus 2 (DENV2, ATCC VR-1584). The experiment in a line: DENV2 infection in AG129 mice: viral load in plasma (plaque assay). The note with it: 100 mg/kg, SC. It is filed as in vivo. On the procedure: (§1) The purpose of this study was to determine the efficacy of the compounds on Dengue virus 2 (DENV2, ATCC® VR-1584™) infection in AG129 mice.
(§2) Six groups of AG129 mice, 6-8 weeks old, with 9 mice per group were used to test compounds according to table 3.1.1. Animal room environment was monitored for temperature and relative humidity twice per day. The temperature range was 22° C.±3° C. and humidity range was 30-70%. The animals were provided with 12 hours light and 12 hours darkness. Feed and drinking water was provided ad libitum. Compounds 43 and 113 were tested.
(§3) Twenty-four hours post treatment (Day 0), animals were injected intraperitoneally (IP) with 0.2 ml of virus suspension (˜5×10^7/animal).
(§4) Administration of compounds and vehicle to animals started twenty four hours before infection (Day −1). Animals were treated daily (From Day-1 to day 4) as per the experimental design shown below in table 3.1.5. Animals were monitored for general clinical signs, morbidity and mortality. Body weights were measured daily.
Blood was collected on days-1, 0, 1, 2, 3, 4 to 5.
BHK-21 cells were cultured to approximately 80% confluency in 24-well plates (NUNC, NY, USA). Plasma samples were 10-fold serially diluted in RPMI 1640 (GIBCO). BHK-21 monolayers were infected with 100 μl of each virus dilution. After incubation at 37° C. and 5% CO2 atmosphere for one hour with rocking at 15 min intervals, the medium was decanted and 1 ml of 1% (w/v)carboxymethyl cellulose in RPMI supplemented with 2% FCS was added to each well. After four days incubation at 37° C. in 5% CO2, the cells were fixed with 4% paraformaldehyde and stained for 30 min with […] of 1% crystal violet dissolved in 37% formaldehyde. After thorough rinsing with water, plates were dried and the plaques were scored visually.
(§5) The Mean±SD Log10PFU/ml, relative Mean±SD spleen weight, Mean±SD biomarker concentrations were estimated in each group. Significant differences between group means and control were analyzed by one-way ANOVA, followed by a Dunnett's multiple comparison test, using GraphPad Prism 5 at 95% confidence levels. A p value of <0.05 was considered as significant.

Data set [2] shares this test system. The data set can be described thus: DENV2 infection in AG129 mice: clinical signs, body and spleen weights. In kind it is in vivo. The note with it: 100 mg/kg, SC; n = 9. On the procedure: as §1, §2
C6/36 (ATCC(CRL-1660) cell lines were grown in RPMI 1640 medium (Gibco/HiMedia) plus 5% fetal bovine serum at 28° C. Dengue virus type 2 (ATCC®VR-1584™) New Guinea C(NGC, DENV2) was passaged in BHK-21 cell cultures to make sufficient stocks for assay. Virus titer was determined by TCID50 method using BHK-21 cells.
as §3
The vehicle for tested compounds was 5% DMSO+95% (20%) hydroxypropylcyclodextrin. […] Formulations were prepared daily immediately before dosing.
as §4
Animals were sacrificed on day 5 post infection with Isoflurane followed by an overdose of CO2. Spleens were excised, measured and weighed.
as §5

The target in another data set is T1, ZIKA protease (Zika virus, UniProt Q32ZE1).
T1 construct: a trypsin-like serine protease domain in the N-terminal region of the flaviviral NS3 proteins
T1 sequence (Q32ZE1 1499-1676): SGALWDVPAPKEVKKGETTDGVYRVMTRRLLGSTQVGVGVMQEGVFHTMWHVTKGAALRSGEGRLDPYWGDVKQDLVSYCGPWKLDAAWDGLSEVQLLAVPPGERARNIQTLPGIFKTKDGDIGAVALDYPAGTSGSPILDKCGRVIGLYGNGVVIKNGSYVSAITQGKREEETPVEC
T1 sequence (Q32ZE1 1421-1460): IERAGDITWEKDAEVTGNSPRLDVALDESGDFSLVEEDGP
The data set can be described thus: biochemical. The note with it: for inhibition at 50 µM / inhibition at 1 µM: read-out: inhibition of ZIKV.

Data set [3] deals with T2, WNV protease (West Nile virus, UniProt P06935).
T2 construct: a trypsin-like serine protease domain in the N-terminal region of the flaviviral NS3 proteins
T2 sequence (P06935 1424-1463): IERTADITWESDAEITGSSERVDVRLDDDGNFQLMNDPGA
T2 sequence (P06935 1502-1679): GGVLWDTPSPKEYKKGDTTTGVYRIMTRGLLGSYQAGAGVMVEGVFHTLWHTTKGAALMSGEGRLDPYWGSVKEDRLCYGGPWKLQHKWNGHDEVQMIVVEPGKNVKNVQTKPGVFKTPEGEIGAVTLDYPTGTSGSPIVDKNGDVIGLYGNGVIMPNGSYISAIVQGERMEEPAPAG
The data set can be described thus: WNV protease assay (analogous procedure). It is filed as biochemical. As to conditions: read-out: IC50 for WNNV.

Another data set addresses human Thrombin (Homo sapiens, UniProt P00734). The data set can be described thus: Selectivity screening, human serine protease thrombin. As to conditions: at 5 μM; read-out: inhibition of human Thrombin. It is filed as biochemical.
For another data set, the target named is human Trypsin (Homo sapiens, UniProt P07477). The data set can be described thus: Selectivity screening, human serine protease trypsin. In kind it is biochemical. As to conditions: read-out: inhibition of human Trypsin. In outline: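 Active candidates were counter-screened for selectivity against the human serine protease trypsin in a biochemical assay similar to the flavivirus protease assay. Cleavage of a substrate by protease activity raises fluorescence, which is read on a microtiter fluorescence plate reader. Compounds are diluted from 10 mM DMSO stocks and tested in triplicate, and inhibition of trypsin is reported.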

In the next data set the target is T3, DENV protease (Dengue virus type 2, UniProt P29990).
T3 construct: The virus-encoded dengue protease comprises the amino-terminal 180 amino acids of NS3 (NS3pro) of the polyprotein
T3 sequence (P29990 1398-1437): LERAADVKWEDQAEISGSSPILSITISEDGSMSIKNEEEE
T3 sequence (P29990 1476-1653): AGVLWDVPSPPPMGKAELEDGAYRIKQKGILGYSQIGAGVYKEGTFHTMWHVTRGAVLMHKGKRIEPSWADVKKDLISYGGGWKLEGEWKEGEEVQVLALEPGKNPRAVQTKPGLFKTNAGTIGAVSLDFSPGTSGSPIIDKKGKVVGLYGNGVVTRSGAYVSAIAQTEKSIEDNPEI
The data set can be described thus: biochemical. As to conditions: read-out: inhibition of DENV. An outline of the steps: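 DENV protease (100 nM) was pre-incubated 15 min with inhibitors in 50 mM Tris-HCl pH 9.0, 10% ethylene glycol, 0.0016% Brij 58. FRET substrate (50 μM final) started the reaction, monitored 15 min as RFU/s slope. IC50 came from triplicate means versus concentration.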

Data set [4] addresses T2, WNV protease. The data set can be described thus: WNV protease assay (analogous procedure). In kind it is biochemical. As to conditions: at 50 μM. In outline: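 Adapted from the DENV protease assay: inhibitors preincubated 15 min with protease (DENV at 100 nM) in 50 mM Tris-HCl pH 9.0, 10% ethylene glycol, 0.0016% Brij 58, then FRET substrate (50 μM final) added.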

As to `NC(=O)c1ncn([C@@H]2O[C@H](CO)[C@@H](O)[C@H]2O)n1` [Ribavirin, ribavirin, reference compound], the “Mean + SD Log10PFU/ml Plasma” value in [1] (Day 2) is recorded as 3.34 ± 0.29 Log10PFU/ml; in [1] (Day 5) it was 3.50 ± 0.13 Log10PFU/ml. Further, the “Body weights of mice at the end of the study (Mean ± SD)” value in [2] is 20.11 ± 1.05 g.
As for `CCCCCCCCCCCCCCCC(=O)N[C@@H](CCCCC(=N)N)C(=O)N[C@@H](Cc1c[nH]cn1)C(N)=O` [compound 170], the IC50 was no more than 25 µM against ZIKA protease and no more than 40 µM at WNV protease [3]. The results for the inhibition at 50 µM on ZIKA protease, at DENV protease and at WNV protease [4] were no less than 65%, no less than 25% and no less than 25%, respectively. Besides, the concentration for a half-maximal effect (EC50) is no more than 25 µM with West Nile virus and no more than 10 µM in the data set on ZIKV. The inhibition at 5 µM was less than 5% at human Thrombin and less than 10% on human Trypsin. Besides, at human Trypsin, the inhibition at 25 µM was less than 20%.
Regarding `CCCCCCCCCCCCCCCC(=O)N[C@@H](CCCCN)CC(=O)N[C@@H](C)C(=O)N[C@H](C)C(=O)N[C@@H](CCCCN)C(N)=O` [compound 114] (Palmitoyl-[β3hK]A[dA]K-NH2), the IC50 against ZIKA protease is no more than 25 µM; at WNV protease [3], no more than 40 µM. The inhibition at 1 µM on ZIKA protease was no less than 10%; on DENV protease, no less than 20%. For the same compound, the inhibition at 50 µM on ZIKA protease was no less than 65%; on DENV protease it was no less than 25%. Also, the EC50 in the data set with West Nile virus is no more than 25 µM; in the data set with ZIKV, no more than 10 µM. In addition, at human Trypsin, the inhibition at 5 µM is less than 10%. The inhibition at 25 µM at human Trypsin was less than 20%.
As to `CCCCCCCCCCCCCCCC(=O)N[C@@H](CCCCN)C(=O)N[C@@H](C)C(=O)N[C@@H](C)C(=O)N[C@@H](CCCCN)C(=O)O` [compound 189] (Palmitoyl-KAAK-OH), the IC50 at ZIKA protease is no more than 25 µM; on WNV protease [3], no more than 40 µM. Besides, the inhibition at 1 µM at ZIKA protease is no less than 10%. In addition, the inhibition at 50 µM on ZIKA protease was no less than 65%; on DENV protease, no less than 25%. The EC50 in the data set on West Nile virus was no more than 25 µM; with ZIKV, no more than 10 µM. In addition, the inhibition at 5 µM at human Thrombin was less than 5%; on human Trypsin it was less than 10%. In addition, the inhibition at 25 µM on human Trypsin is less than 20%.
Take `CCCCCCCCCCCCCCCC(=O)N[C@@H](CCCNC(=N)N)C(=O)N[C@@H](C)C(=O)N[C@@H](CCc1ccccc1)C(N)=O` [compound 51] (Palmitoyl-Arg-Ala-[hPhe]-NH2): at ZIKA protease, the IC50 was no more than 25 µM, the inhibition at 1 µM was no less than 10% and the inhibition at 50 µM was no less than 65%. In the data set on West Nile virus, this compound had an EC50 of no more than 25 µM. At DENV protease, the inhibition at 1 µM is no less than 20% and the inhibition at 50 µM was no less than 25%. For the same compound, the EC50 in the data set with ZIKV is no more than 10 µM.
On to `CCCCCCCCCCCCCCCC(=O)N[C@H](CCCNC(=N)N)C(=O)N[C@@H](CCC(N)=O)C(=O)N[C@@H](Cc1ccccc1)C(N)=O` [compound 44] (Palmitoyl-[dR]-Gln-Phe-NH2), for which the figures for the IC50 against ZIKA protease and at WNV protease [3] were no more than 25 µM and no more than 40 µM, respectively. For the same compound, at ZIKA protease, the inhibition at 1 µM is no less than 10%. Also, the values for the inhibition at 50 µM on ZIKA protease, on DENV protease and at WNV protease [4] were no less than 65%, no less than 25% and no less than 25%, respectively. Further, the EC50 in the data set on West Nile virus is no more than 25 µM; with ZIKV, no more than 10 µM. In addition, the inhibition at 5 µM was less than 5% at human Thrombin and less than 10% on human Trypsin. Besides, the inhibition at 25 µM at human Trypsin was less than 20%.
As to `CCCCCCCCCCCCCCCC(=O)N[C@H](CCCCN)C(=O)N1CCC[C@H]1C(=O)N[C@@H](C)C(=O)N[C@@H](Cc1c[nH]c2ccccc12)C(N)=O` [compound 196] (Palmitoyl-[dK]PAW-NH2), the IC50 is no more than 25 µM against ZIKA protease and no more than 40 µM on WNV protease [3]. The inhibition at 50 µM is no less than 65% on ZIKA protease, no less than 25% on DENV protease and no less than 25% against WNV protease [4]. Also, the EC50 is no more than 25 µM in the data set with West Nile virus and no more than 10 µM with ZIKV. In addition, the inhibition at 5 µM is less than 5% at human Thrombin and less than 10% on human Trypsin. The inhibition at 25 µM on human Trypsin is less than 20%.
As to `CCCCCCCCCCCCCCCC(=O)N[C@@H](CCCCN)CN1CCC[C@H]1C(=O)N[C@@H](C)C(=O)N[C@H](CCc1ccccc1)C(N)=O` [compound 118], the IC50 on ZIKA protease was no more than 25 µM; on WNV protease [3] it was no more than 40 µM. At ZIKA protease, the inhibition at 1 µM was no less than 10%. The values for the inhibition at 50 µM on ZIKA protease, at DENV protease and against WNV protease [4] were no less than 65%, no less than 25% and no less than 25%, respectively. The EC50 with West Nile virus was no more than 25 µM; in the data set with ZIKV, no more than 10 µM. Moreover, the inhibition at 5 µM on human Thrombin was less than 5%; at human Trypsin, less than 10%. In addition, the inhibition at 25 µM on human Trypsin is less than 20%.

Broadly, the IC50 is the point on the concentration scale where inhibition reaches its midpoint. Broadly, the inhibition is the relative decrease from the control value, in per cent. One may read the EC50 as the concentration that produces a half-maximal response. Low readings indicate greater potency, high ones weaker potency.
